Values of other authors in US8563014B2, “Modafinil oral lyophilizate” (Teva Sante, priority 2004, dated 2013).

How the values were obtained:
monkeys = details: single administration
mice = details: single administration

In the case of `NC(=O)C[S+]([O-])C(c1ccccc1)c1ccccc1` (centres unmarked) [modafinil, 2-(benzhydrylsulfinyl)acetamide], the Nocturnal activity (monkeys) is listed as “increased nocturnal activity” and the Locomotor activity (mice) is listed as “increased locomotor activity”.
